Experimental data taken from patent US20120015907A1, “Furopyridine compounds and uses thereof” (NOVARTIS AG, priority 2010, published 2012).
pIC50: −log10 of the molar value.

biological target: T1, HCV polymerase (Hepatitis C virus genotype 1b, UniProt Q9WMX2); experiment: biochemical; conditions: NS5B polymerase IC50 μM, polymerase assay of Biological Example 1
T1 construct: (His)6 (C)

| Structure (SMILES) | IC50 [µM] |
| --- | --- |
| CNC(=O)c1c(-c2ccc(C)cc2)oc2nc(N(CCCCP(C)(=O)O)S(C)(=O)=O)c(C3CC3)cc12 [Example 23.99999, 4-(N-(5-cyclopropyl-3-(methylcarbamoyl)-2-p-tolylfuro[2,3-b]pyridin-6-yl)methylsulfonamido)butyl (methyl)phosphinic acid] | 0.006 |
| CCOP(C)(=O)CCCN(c1nc2oc(-c3ccc(C)cc3)c(C(=O)NC)c2cc1C1CC1)S(C)(=O)=O (centres unmarked) [Example 23.99992, ethyl 3-(N-(5-cyclopropyl-3-(methylcarbamoyl)-2-p-tolylfuro[2,3-b]pyridin-6-yl)methylsulfonamido)propyl (methyl)phosphinate] | 0.007 |
| CNC(=O)c1c(-c2ccc(C)cc2)oc2nc(N(CCCCP(C)(=O)O)S(C)(=O)=O)c(I)cc12 [Example 23.9999, 4-(N-(5-iodo-3-(methylcarbamoyl)-2-p-tolylfuro[2,3-b]pyridin-6-yl)methylsulfonamido)butyl (methyl)phosphinic acid] | 0.013 |
| CCOP(C)(=O)CCCCN(c1nc2oc(-c3ccc(C)cc3)c(C(=O)NC)c2cc1I)S(C)(=O)=O (centres unmarked) [Example 23.9995, ethyl 4-(N-(5-iodo-3-(methylcarbamoyl)-2-p-tolylfuro[2,3-b]pyridin-6-yl)methylsulfonamido)butyl (methyl)phosphinate] | 0.017 |

same assay, conditions: polymerase assay of Biological Example 1; read-out: NS5B polymerase IC50

| Structure (SMILES) | pIC50 |
| --- | --- |
| CNC(=O)c1c(-c2ccc(C)cc2)oc2nc(N(CCCC(C#N)CC(=O)O)S(C)(=O)=O)c(C3CC3)cc12 (centres unmarked) [Example 29.999995, 3-cyano-6-(N-(5-cyclopropyl-3-(methylcarbamoyl)-2-p-tolylfuro[2,3-b]pyridin-6-yl)methylsulfonamido) hexanoic acid] | 8.52 |
| CCc1cc2c(C(=O)NC)c(-c3ccc(F)cc3)oc2nc1N(CCCN1CCCC1=O)S(C)(=O)=O [Example 22.996, 5-ethyl-2-(4-fluorophenyl)-N-methyl-6-(N-(3-(2-oxopyrrolidin-1-yl)propyl)methylsulfonamido)furo[2,3-b]pyridine-3-carboxamide] | 7.23 |
| CCc1cc2c(C(=O)NC)c(-c3ccc(F)cc3)oc2nc1N(CCCC(C)(C)C(=O)O)S(C)(=O)=O [Example 21.4, 5-(N-(5-ethyl-2-(4-fluorophenyl)-3-(methylcarbamoyl)furo[2,3-b]pyridin-6-yl)methylsulfonamido)-2,2-dimethylpentanoic acid] | 8.15 |
| CNC(=O)c1c(-c2ccc(C)c(C)c2)oc2nc(N(CCCCC(=O)O)S(C)(=O)=O)c(C3CC3)cc12 [Example 29.999998, 5-(N-(5-cyclopropyl-2-(3,4-dimethylphenyl)-3-(methylcarbamoyl)furo[2,3-b]pyridin-6-yl)methylsulfonamido) pentanoic acid] | 8.40 |
| CNC(=O)c1c(-c2ccc(C)cc2)oc2nc(N(CCCNS(=O)(=O)C(F)(F)F)S(C)(=O)=O)c(C3CC3)cc12 [Example 23.999992, 5-cyclopropyl-N-methyl-2-p-tolyl-6-(N-(3-(trifluoromethylsulfonamido)propyl)methylsulfonamido) furo[2,3-b]pyridine-3-carboxamide] | 8.70 |
| CCc1cc2c(C(=O)NC)c(-c3ccc(F)cc3)oc2nc1N(CCCOc1ccccc1OC)S(C)(=O)=O [Example 21.92, 5-ethyl-2-(4-fluorophenyl)-6-(N-(3-(2-methoxyphenoxy)propyl)methylsulfonamido)-N-methylfuro[2,3-b]pyridine-3-carboxamide] | 6.45 |
| CCc1cc2c(C(=O)NC)c(-c3ccc(F)cc3)oc2nc1N(CCCC(C)(C)C(=O)OCC(C)C)S(C)(=O)=O [Example 21.3, isobutyl 5-(N-(5-ethyl-2-(4-fluorophenyl)-3-(methylcarbamoyl)furo[2,3-b]pyridin-6-yl)methylsulfonamido)-2,2-dimethylpentanoate] | 6.87 |
| CCc1cc2c(C(=O)NC)c(-c3ccc(F)cc3)oc2nc1N(CCOCCN1C(=O)NC(C)(C)C1=O)S(C)(=O)=O [Example 22.4, 6-(N-(2-(2-(4,4-dimethyl-2,5-dioxoimidazolidin-1-yl)ethoxy)ethyl)methylsulfonamido)-5-ethyl-2-(4-fluorophenyl)-N-methylfuro[2,3-b]pyridine-3-carboxamide] | 7.48 |
| CNC(=O)c1c(-c2ccc(C)cc2)oc2nc(N(CCCCCCCCCC(=O)O)S(C)(=O)=O)c(C3CC3)cc12 [Example 29.993, 10-(N-(5-cyclopropyl-3-(methylcarbamoyl)-2-p-tolylfuro[2,3-b]pyridin-6-yl)methylsulfonamido) decanoic acid] | 8.70 |
| CNC(=O)c1c(-c2ccc(C)cc2)oc2nc(N(CCCC3(C(=O)O)CCOCC3)S(C)(=O)=O)c(C3CC3)cc12 [Example 28.4, 4-(3-(N-(5-cyclopropyl-3-(methylcarbamoyl)-2-p-tolylfuro[2,3-b]pyridin-6-yl)methylsulfonamido)propyl)tetrahydro-2H-pyran-4-carboxylic acid] | 8.52 |
| CNC(=O)c1c(-c2ccc(C)cc2)oc2nc(N(CCCC3(C(=O)O)CC3)S(C)(=O)=O)c(C3CC3)cc12 [Example 29.8, 1-(3-(N-(5-cyclopropyl-3-(methylcarbamoyl)-2-p-tolylfuro[2,3-b]pyridin-6-yl)mcthylsulfonamido)propyl) cyclopropanecarboxylic acid] | 8.70 |
| CNC(=O)c1c(-c2ccc(C)cc2)oc2nc(N(CCOCCBr)S(C)(=O)=O)c(C3CC3)cc12 [Example 29.99994, 6-(N-(2-(2-bromoethoxy)ethyl)methylsulfonamido)-5-cyclopropyl-N-methyl-2-p-tolylfuro[2,3-b]pyridine-3-carboxamide] | 8.15 |
| CNC(=O)c1c(-c2ccc(C)cc2)oc2nc(N(CCCC/C(C(=O)O)=C(\C)O)S(C)(=O)=O)c(C3CC3)cc12 [Example 46.1, (Z)-6-(N-(5-cyclopropyl-3-(methylcarbamoyl)-2-(p-tolyl)furo[2,3-b]pyridin-6-yl)methylsulfonamido)-2-(1-hydroxyethylidene)hexanoic acid] | 8.52 |
| CNC(=O)c1c(-c2ccc(C)cc2)oc2nc(N(CCC3CCCC3C(=O)O)S(C)(=O)=O)c(C3CC3)cc12 (centres unmarked) [Example 29.3, 2-(2-(N-(5-cyclopropyl-3-(methylcarbamoyl)-2-p-tolylfuro[2,3-b]pyridin-6-yl)methylsulfonamido)ethyl) cyclopentanecarboxylic acid] | 8.22 |
| CCc1cc2c(C(=O)NC)c(-c3ccc(F)cc3)oc2nc1N(CCCCC(C)(C)O)S(C)(=O)=O [Example 22.97, 5-ethyl-2-(4-fluorophenyl)-6-(N-(5-hydroxy-5-methylhexyl)methylsulfonamido)-N-methylfuro[2,3-b]pyridine-3-carboxamide] | 7.34 |
| CNC(=O)c1c(-c2ccc(C)cc2)oc2nc(N(CCC(CC(=O)O)N(C)C)S(C)(=O)=O)c(C3CC3)cc12 (centres unmarked) [Example 44, 5-[(5-Cyclopropyl-3-methylcarbamoyl-2-p-tolyl-furo[2,3-b]pyridin-6-yl)-methanesulfonyl-amino]-3-dimethylamino-pentanoic acid] | 7.70 |
| CNC(=O)c1c(-c2ccc(C)cc2)oc2nc(N(CCCBr)S(C)(=O)=O)c(C3CC3)cc12 [Example 29.999, 6-(N-(3-bromopropyl)methylsulfonamido)-5-cyclopropyl-N-methyl-2-p-tolylfuro[2,3-b]pyridine-3-carboxamide] | 8.40 |
| CNC(=O)c1c(-c2ccc(C)cc2)oc2nc(N(CCCNCCCC(=O)O)S(C)(=O)=O)c(C3CC3)cc12 [Example 23.999996, 4-(3-(N-(5-cyclopropyl-3-(methylcarbamoyl)-2-p-tolylfuro[2,3-b]pyridin-6-yl)methylsulfonamido)propylamino)butanoic acid] | 7.80 |
| CNC(=O)c1c(-c2ccc(C)cc2)oc2nc(N(CCC[C@@H](C)C(=O)N[C@H](C(=O)OC)c3ccccc3)S(C)(=O)=O)c(C3CC3)cc12 [Example 29.99997, (S)-methyl 2-((R)-5-(N-(5-cyclopropyl-3-(methylcarbamoyl)-2-p-tolylfuro[2,3-b]pyridin-6-yl)methylsulfonamido)-2-methylpentanamido)-2-phenylacetate] | 8.40 |
| CNC(=O)c1c(-c2ccc(C)cc2)oc2nc(N(CCCC[C@H](COC)C(=O)O)S(C)(=O)=O)c(C3CC3)cc12 [Example 47.5, (R)-6-(N-(5-Cyclopropyl-3-(methylcarbamoyl)-2-p-tolylfuro[2,3-b]pyridin-6-yl)methylsulfonamido)-2-(methoxymethyl)hexanoic acid] | 8.52 |
| CCc1cc2c(C(=O)NC)c(-c3ccc(F)cc3)oc2nc1N(CCCC1=C(O)CCC1=O)S(C)(=O)=O [Example 23.95, 5-ethyl-2-(4-fluorophenyl)-6-(N-(3-(2-hydroxy-5-oxocyclopent-1-enyl)propyl)methylsulfonamido)-N-methylfuro[2,3-b]pyridine-3-carboxamide] | 7.54 |
| CCc1cc2c(C(=O)NC)c(-c3ccc(F)cc3)oc2nc1N(CCCS(=O)(=O)N1CCOCC1)S(C)(=O)=O [Example 21.98, 5-ethyl-2-(4-fluorophenyl)-N-methyl-6-(N-(3-(morpholinosulfonyl)propyl)methylsulfonamido)furo[2,3-b]pyridine-3-carboxamide] | 7.43 |
| CCc1ccc(-c2oc3nc(N(CCCCC4(C(=O)O)CCOCC4)S(C)(=O)=O)c(C4CC4)cc3c2C(=O)NC)cc1 [Example 29.94, 4-(4-(N-(5-cyclopropyl-2-(4-ethylphenyl)-3-(methylcarbamoyl)furo[2,3-b]pyridin-6-yl)methylsulfonamido)butyl) tetrahydro-2H-pyran-4-carboxylic acid] | 8.52 |
| CCc1cc2c(C(=O)NC)c(-c3ccc(F)cc3)oc2nc1N(CCOc1cccc(C(=O)OC)c1)S(C)(=O)=O [Example 22.6, methyl 3-(2-(N-(5-ethyl-2-(4-fluorophenyl)-3-(methylcarbamoyl)furo[2,3-b]pyridin-6-yl)methylsulfonamido)ethoxy)benzoate] | 6.60 |
| CCc1ccc(-c2oc3nc(N(CCCC(C)(COC)C(=O)O)S(C)(=O)=O)c(C4CC4)cc3c2C(=O)NC)cc1 (centres unmarked) [Example 43, 5-(N-(5-Cyclopropyl-2-(4-ethylphenyl)-3-(methylcarbamoyl)furo[2,3-b]pyridin-6-yl)methylsulfonamido)-2-(methoxymethyl)-2-methylpentanoic acid] | 8.70 |
